According to the supplement of paper PMC10307832:

How the values were obtained:
Test in all cases: relative viability (nuclei count vs DMSO), 5 days (fraction); higher = more cells survive
[1] = compound: C[C@H]([C@@H](C(=O)N)NC(=O)[C@@H]1CSSC[C@@H](C(=O)N[C@H](C(=O)N[C@@H](C(=O)N[C@H](C(=O)N1)CCCCN)CC2=CNC3=CC=CC=C32)CC4=CC=C(C=C4)O)NC(=O)[C@@H](CC5=CC=CC=C5)N)O [CAP-232]
Procedure, shortened: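 Lung cancer cell lines were seeded into 1536-well plates, kept overnight at 37 °C and pinned with five library-drug doses (not always all listed) spaced by √10. After 5 days, nuclei were Hoechst-stained, imaged at 4× and counted with MetaXpress. Viability is treated-well nuclei over vehicle-well nuclei, taken as a median across plates. Plates needed control CV below 25% and at least one doubling.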

[2] = compound: C[C@H]([C@@H](C(=O)N)NC(=O)[C@@H]1CSSC[C@@H](C(=O)N[C@H](C(=O)N[C@@H](C(=O)N[C@H](C(=O)N1)CCCCN)CC2=CNC3=CC=CC=C32)CC4=CC=C(C=C4)O)NC(=O)[C@@H](CC5=CC=CC=C5)N)O [CAP-232] + CC(=O)Nc1cccc(-n2c(=O)n(C3CC3)c(=O)c3c(Nc4ccc(I)cc4F)n(C)c(=O)c(C)c32)c1 [Trametinib] (partner 0.02 µM)
Procedure, shortened: (§1)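 Lung cancer cell lines in 1536-well plates were dosed by pin tool the day after seeding, either with one drug alone or with a fixed anchor-drug dose plus five library-drug doses (not always all listed) in √10 steps. After 5 days, cells were fixed and their nuclei stained in one step (final 0.05% Triton X-100, 1% formaldehyde, 1 ug/ml Hoechst), then counted on 4× images. Relative viability is the nuclei count in treated wells divided by that in vehicle wells. Values are medians of duplicate plates.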

[3] = compound: C[C@H]([C@@H](C(=O)N)NC(=O)[C@@H]1CSSC[C@@H](C(=O)N[C@H](C(=O)N[C@@H](C(=O)N[C@H](C(=O)N1)CCCCN)CC2=CNC3=CC=CC=C32)CC4=CC=C(C=C4)O)NC(=O)[C@@H](CC5=CC=CC=C5)N)O [CAP-232] + NC(=O)Nc1cc(-c2cccc(F)c2)sc1C(=O)N[C@H]1CCCNC1 [AZD7762] (partner 0.2 µM)
Procedure, shortened: as §1

[4] = compound: C[C@H]([C@@H](C(=O)N)NC(=O)[C@@H]1CSSC[C@@H](C(=O)N[C@H](C(=O)N[C@@H](C(=O)N[C@H](C(=O)N1)CCCCN)CC2=CNC3=CC=CC=C32)CC4=CC=C(C=C4)O)NC(=O)[C@@H](CC5=CC=CC=C5)N)O [CAP-232] + CS(=O)(=O)CCNCc1ccc(-c2ccc3ncnc(Nc4ccc(OCc5cccc(F)c5)c(Cl)c4)c3c2)o1 [Lapatinib] (partner 2 µM)
Procedure, shortened: as §1

[5] = compound: C[C@H]([C@@H](C(=O)N)NC(=O)[C@@H]1CSSC[C@@H](C(=O)N[C@H](C(=O)N[C@@H](C(=O)N[C@H](C(=O)N1)CCCCN)CC2=CNC3=CC=CC=C32)CC4=CC=C(C=C4)O)NC(=O)[C@@H](CC5=CC=CC=C5)N)O [CAP-232] + O=C(CCCCCCC(=O)Nc1ccccc1)NO [Vorinostat] (partner 1 µM)
Procedure, shortened: as §1

Cell Line	relative viability ([1]; 0.4 µM)	relative viability ([1]; 1.265 µM)	relative viability ([1]; 4 µM)	relative viability ([1]; 12.65 µM)	relative viability ([2]; first compound 0.4 µM)	relative viability ([2]; first compound 1.265 µM)	relative viability ([2]; first compound 4 µM)	relative viability ([2]; first compound 12.65 µM)	relative viability ([3]; first compound 0.4 µM)	relative viability ([3]; first compound 1.265 µM)	relative viability ([3]; first compound 4 µM)	relative viability ([3]; first compound 12.65 µM)	relative viability ([4]; first compound 0.4 µM)	relative viability ([4]; first compound 1.265 µM)	relative viability ([4]; first compound 4 µM)	relative viability ([4]; first compound 12.65 µM)	relative viability ([5]; first compound 0.4 µM)	relative viability ([5]; first compound 1.265 µM)	relative viability ([5]; first compound 4 µM)	relative viability ([5]; first compound 12.65 µM)
PC-14	1.12	0.971	1.04	0.755	0.843	0.891	0.739	0.37	0.522	0.297	0.334	0.24	0.34	0.31	0.409	0.262	0.793	0.701	0.725	0.522
NCI-H3122	1	1	0.984	0.957	0.222	0.194	0.293	0.24	0.984	1.08	1.14	0.958	1	1.09	1	1.05	1.07	1.05	0.883	0.945
SK-MES-1	1.02	1.06	1.01	0.904	0.543	0.549	0.541	0.524					0.534	0.469	0.419	0.473	1.3	1.13	1.02	0.489
NCI-H1944	0.921	0.972	1.03	0.969	0.353	0.437	0.404	0.422	0.516	0.476	0.452	0.367	0.942	0.729	0.998	0.773	0.614	0.673	0.559	0.552
LK-2	1.08	0.957	1.1	0.976	0.438	0.687	0.711	0.563	0.357	0.274	0.322	0.376	0.942	1.06	0.808	0.759	0.277	0.249	0.275	0.298
RERF-LC-KJ	1.07	1	0.99	0.935	0.927	0.778	0.784	0.566	1.01	1.03	0.997	0.914	0.96	0.859	1.03	0.861	0.817	0.763	0.706	0.485
COR-L23	1.15	1.05	1.09	0.745	0.455	0.597	0.604	0.281					1.3	0.961	1.08	0.845	0.518	0.474	0.488	0.381
NCI-H1355	1.09	0.987	1.13	0.95	0.437	0.434	0.456	0.342	0.794	0.82	0.872	0.706	1.11	1.06	1.19	1.01	0.612	0.624	0.74	0.611
NCI-H460	1.04	1.01	1.09	0.777	0.134	0.208	0.165	0.0175	0.856	0.58	0.734	0.416	1.11	1.02	1.62	0.773	1.01	0.865	1.1	0.363
NCI-H1993	0.954	0.934	1.09	0.945	0.443	0.491	0.589	0.429	0.756	0.702	0.694	0.633	0.877	0.791	0.915	0.673	0.702	0.802	0.791	0.749
ChaGo-K-1	1.1	0.99	1.05	1.04	0.867	0.892	1.01	0.93	0.869	0.868	0.916	0.817					0.835	0.724	0.709	0.71
HCC-15	1.15	1.01	1.14	0.874	0.376	0.364	0.393	0.267	1.36	1.28	1.34	1.14	0.971	0.8	0.934	0.654	0.825	0.858	0.959	0.61
NCI-H2009	1.06	0.998	1	0.932	0.237	0.251	0.247	0.301					1.02	0.896	0.913	0.848	0.731	0.733	0.773	0.634
SW 1573	0.909	0.928	1.06	0.495	0.503	0.54	0.643	0.191					1.06	1.12	1.21	1.13	0.7	0.867	0.926	0.309
ABC-1	0.968	0.789	0.957	0.603					0.883	0.541	0.803	0.692	1	1.12	0.887	1.26	1.48		1.13	0.952
